Source: patent US12606528B2, “Methods and materials for inhibiting NF-kB activity” (University of Pittsburgh - Of the Commonwealth System of …, priority 2019, dated 2026)
Read-outs that look alike come from different tables or passages of the source.

Legend:
[1] = system: NF-κB; assay: NF-κB assay: THP1-NF-κB-LUC cells, LPS-stimulated secreted luciferase; assay type: cell-based; conditions: THP1-NF-κB-LUC cells, read-out: IC50 (NF-κB assay)
Outline: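 THP1-NF-κB-LUC cells (25k/well) were pretreated with compounds for 2 h, then stimulated with LPS (10 ng/mL) for 18 h. Secreted luciferase was measured and normalized to vehicle, and IC50 was fitted from the concentration series.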

[2] = system: TNF release; assay: TNF assay: TNF release from LPS-stimulated human PBMCs (TNF ELISA); assay type: cell-based; conditions: PBMC, read-out: IC50 (TNF assay)
Outline: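 Human PBMCs at 10k/well pretreated with compound dilutions 2 h, then stimulated with LPS (10 ng/mL) for 18 h. TNF in supernatants quantified by ELISA; IC50 for inhibition of TNF release fitted from concentration–response.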

[3] = LPS-stimulated human PBMCs, TNF ELISA
[4] = compounds 2 hours before LPS (10 ng/mL) for 18 hours, secreted luciferase
[5] = human PBMCs, compounds 2 hours before LPS (10 ng/ml) for 18 hours, supernatant TNF ELISA

Row | SMILES | IC50 ([1]; LPS-stimulated) | IC50 [2, 3] | IC50 [1, 4] | IC50 [2, 5]
1 | O=S(=O)(c1ccc(Cl)cc1)c1nc(-c2cccc(F)c2)oc1S(=O)(=O)C1CCCCC1 [BC19412] | 0.1 to 1 µM | 0.1 to 1 µM |  | 
2 | C[S+]([O-])c1sc(-c2ccc(F)cc2)nc1S(=O)(=O)c1ccc(Cl)cc1 (stereo not drawn) [BC19413] | > 10 µM | 1 to 10 µM |  | 
3 | CCC[S+]([O-])c1sc(-c2ccc(F)cc2)nc1S(=O)(=O)c1ccc(Cl)cc1 (stereo not drawn) [BC19414] | > 10 µM | > 10 µM |  | 
4 | CC(C)[S+]([O-])c1sc(-c2ccc(F)cc2)nc1S(=O)(=O)c1ccc(Cl)cc1 (stereo not drawn) [BC19415] | > 10 µM | 1 to 10 µM |  | 
5 | O=S(=O)(c1ccc(Cl)cc1)c1nc(-c2ccc(F)cc2)sc1[S+]([O-])CC1CC1 (stereo not drawn) [BC19416] | > 10 µM | > 10 µM |  | 
6 | CCC[S+]([O-])c1oc(-c2ccc(Cl)cc2)nc1S(=O)(=O)c1ccc(Cl)cc1 (stereo not drawn) [BC19417] | 0.1 to 1 µM | 1 to 10 µM |  | 
7 | CCCS(=O)(=O)c1oc(-c2ccc(Cl)cc2)nc1S(=O)(=O)c1ccc(Cl)cc1 [BC19418] | 1 to 10 µM | 1 to 10 µM |  | 
8 | CC(C)CS(=O)(=O)c1oc(-c2ccc(Cl)cc2)nc1S(=O)(=O)c1ccc(Cl)cc1 [BC19419] | 1 to 10 µM | 0.1 to 1 µM |  | 
9 | COCC[S+]([O-])c1[nH]c(-c2ccccc2)nc1S(=O)(=O)c1ccc(Cl)cc1 (stereo not drawn) [BC19420] | > 10 µM | > 10 µM |  | 
10 | CCS(=O)(=O)c1cc2c(c(S(=O)(=O)Nc3ccc(F)c(F)c3)c1)OCC(=O)N2 [BC19421] |  |  | < 0.1 µM | > 10 µM
11 | CS(=O)(=O)c1cc2c(c(S(=O)(=O)Nc3ccc(OC(F)(F)F)cc3)c1)OCC(=O)N2 [BC19422] |  |  | < 0.1 µM | > 10 µM
12 | Cc1ccc(NS(=O)(=O)c2cc(S(C)(=O)=O)cc3c2OCC(=O)N3)cc1F [BC19423] |  |  | < 0.1 µM | > 10 µM
13 | CC(C)c1ccc(NS(=O)(=O)c2cc(S(C)(=O)=O)cc3c2OCC(=O)N3)cc1 [BC19424] |  |  | < 0.1 µM | > 10 µM
14 | CS(=O)(=O)c1cc2c(c(S(=O)(=O)Nc3ccc(F)cc3F)c1)OCC(=O)N2 [BC19425] |  |  | < 0.1 µM | > 10 µM
15 | CS(=O)(=O)c1cc2c(c(S(=O)(=O)Nc3cccc(F)c3)c1)OCC(=O)N2 [BC19426] |  |  | < 0.1 µM | > 10 µM
16 | CS(=O)(=O)c1cc2c(c(S(=O)(=O)Nc3cccc(Cl)c3)c1)OCC(=O)N2 [BC19427] |  |  | < 0.1 µM | > 10 µM
17 | CS(=O)(=O)c1cc2c(c(S(=O)(=O)Nc3ccc(F)cc3Cl)c1)OCC(=O)N2 [BC19428] |  |  | 0.1 to 1 µM | > 10 µM
18 | COc1ccc(NS(=O)(=O)c2cc(S(C)(=O)=O)cc3c2OCC(=O)N3)cc1Cl [BC19429] |  |  | > 10 µM | > 10 µM
19 | CS(=O)(=O)c1cc2c(c(S(=O)(=O)Nc3ccc(F)cc3)c1)OCC(=O)N2 [BC19430] |  |  | < 0.1 µM | > 10 µM
20 | CS(=O)(=O)c1cc2c(c(S(=O)(=O)Nc3ccc(C#N)cc3)c1)OCC(=O)N2 [BC19431] |  |  | < 0.1 µM | > 10 µM
21 | Cc1ccc(NS(=O)(=O)c2c(C)c(Cl)cc3c2OCC(=O)N3)cc1 [BC19432] |  |  | 0.1 to 1 µM | > 10 µM
22 | Cc1ccc(NS(=O)(=O)c2c(C)c(Cl)cc3c2OCC(=O)N3)cc1Cl [BC19433] |  |  | < 0.1 µM | > 10 µM
23 | Cc1c(Cl)cc2c(c1S(=O)(=O)Nc1ccc(Cl)cc1)OCC(=O)N2 [BC19434] |  |  | < 0.1 µM | > 10 µM
24 | CCS(=O)(=O)c1cc2c(c(S(=O)(=O)Nc3ccc(OC(F)(F)F)cc3)c1)OCC(=O)N2 [BC19435] |  |  | < 0.1 µM | > 10 µM
25 | CCS(=O)(=O)c1cc2c(c(S(=O)(=O)Nc3ccc(C)c(F)c3)c1)OCC(=O)N2 [BC19436] |  |  | < 0.1 µM | > 10 µM
26 | CCS(=O)(=O)c1cc2c(c(S(=O)(=O)Nc3ccccc3)c1)OCC(=O)N2 [BC19437] |  |  | < 0.1 µM | > 10 µM

Row | SMILES | IC50 ([1]; LPS-stimulated) | IC50 [2, 3] | IC50 [1, 4] | IC50 [2, 5]
27 | CCS(=O)(=O)c1cc2c(c(S(=O)(=O)Nc3ccc(OC)cc3)c1)OCC(=O)N2 [BC19438] |  |  | < 0.1 µM | > 10 µM
28 | CCc1cccc(NS(=O)(=O)c2cc(S(=O)(=O)CC)cc3c2OCC(=O)N3)c1 [BC19439] |  |  | < 0.1 µM | > 10 µM
29 | CCS(=O)(=O)c1cc2c(c(S(=O)(=O)Nc3cccc(F)c3)c1)OCC(=O)N2 [BC19440] |  |  | < 0.1 µM | > 10 µM
30 | CCS(=O)(=O)c1cc2c(c(S(=O)(=O)Nc3cccc(Cl)c3)c1)OCC(=O)N2 [BC19441] |  |  | < 0.1 µM | > 10 µM
31 | CCS(=O)(=O)c1cc2c(c(S(=O)(=O)Nc3ccc(F)cc3Cl)c1)OCC(=O)N2 [BC19442] |  |  | 0.1 to 1 µM | > 10 µM
32 | CCS(=O)(=O)c1cc2c(c(S(=O)(=O)Nc3ccc(F)cc3)c1)OCC(=O)N2 [BC19443] |  |  | < 0.1 µM | > 10 µM
33 | Cn1cnnc1-c1ccc2nc(-c3ccc(F)cc3F)c(-c3ccccc3)nc2c1 [BC19444] | 0.1 to 1 µM | > 10 µM |  | 
34 | CN1CCN(C(=O)c2ccc3nc(-c4ccc(OC(F)(F)F)cc4)c(-c4ccc(OC(F)(F)F)cc4)nc3c2)CC1 [BC19445] | > 10 µM | > 10 µM |  | 
35 | CN1CCN(C(=O)c2ccc3nc(-c4ccc(C#N)cc4)c(-c4ccc(C#N)cc4)nc3c2)CC1 [BC19446] | > 10 µM | > 10 µM |  | 
36 | CNC(=O)c1ccc2nc(-c3ccc(OC(F)(F)F)cc3)c(-c3ccc(OC(F)(F)F)cc3)nc2c1 [BC19447] | > 10 µM | > 10 µM |  | 
37 | Oc1ccc2nc(-c3ccc(F)cc3)c(-c3ccc(F)cc3)nc2n1 [BC19448] | 0.1 to 1 µM | > 10 µM |  | 
38 | O=C(O)c1ccc2nc(-c3ccc(OC(F)(F)F)cc3)c(-c3ccc(OC(F)(F)F)cc3)nc2c1 [BC19449] | > 10 µM | > 10 µM |  | 
39 | CN1CCN(C(=O)c2ccc3nc(-c4ccc(Cl)cc4)c(-c4ccc(Cl)cc4)nc3c2)CC1 [BC19450] | 1 to 10 µM | > 10 µM |  | 
40 | C#CCNC(=O)c1ccc2nc(-c3ccc(Cl)cc3)c(-c3ccc(Cl)cc3)nc2c1 [BC19451] | 0.1 to 1 µM | > 10 µM |  | 
41 | O=C(NCCO)c1ccc2nc(-c3ccc(Cl)cc3)c(-c3ccc(Cl)cc3)nc2c1 [BC19452] | 0.1 to 1 µM | > 10 µM |  | 
42 | O=C(NCCO)c1ccc2nc(-c3ccc(OC(F)(F)F)cc3)c(-c3ccc(OC(F)(F)F)cc3)nc2c1 [BC19453] | > 10 µM | > 10 µM |  | 
43 | O=c1[nH]ccc2cc([S+]([O-])c3ccccc3)ccc12 (stereo not drawn) [BC19454] |  |  | > 10 µM | > 10 µM
44 | COc1ccc(S(=O)(=O)c2cnccc2O)cc1OC [BC19455] |  |  | > 10 µM | > 10 µM
45 | O=S(=O)(c1ccc(Cl)cc1)c1cnccc1O [BC19456] |  |  | > 10 µM | > 10 µM
46 | COc1ccc(S(=O)(=O)c2cnccc2O)cc1 [BC19457] |  |  | > 10 µM | > 10 µM
47 | Cc1ccc([S+]([O-])c2cnccc2O)c(C)c1 (stereo not drawn) [BC19458] |  |  | > 10 µM | > 10 µM
48 | O=S(=O)(c1ccc(F)cc1)c1cnccc1O [BC19459] |  |  | > 10 µM | > 10 µM
49 | O=S(=O)(c1ccccc1)c1cnccc1O [BC19461] |  |  | > 10 µM | > 10 µM
50 | COc1cccc(-c2nc(S(=O)(=O)c3ccc(Cl)cc3)c([S+]([O-])CC3CC3)[nH]2)c1 (stereo not drawn) [BC19462] | 1 to 10 µM | > 10 µM |  | 
51 | CC(C)C[S+]([O-])c1oc(-c2ccc(Cl)cc2)nc1S(=O)(=O)c1ccc(Cl)cc1 (stereo not drawn) [BC19463] | < 0.1 µM | 0.1 to 1 µM |  | 
